# Where a name gives a salt, the structure may show the parent alone.
# Target: T1, p-glycoprotein (Homo sapiens, UniProt P08183)
# T1 construct: Multidrug-resistant and -sensitive cells of the T-lymphoblastoid leukemia cell lines CCRF-VCR 1000 and CCRF-CEM are withdrawn from the cell culture; endogenous in cells; host or cells: CCRF-VCR 1000 (multidrug-resistant); CCRF-CEM (sensitive)
# Assay: Measurement of P-glycoprotein inhibition (Rhodamine 123 accumulation)
# Assay type: cell-based
# Details: not given
# Procedure: Multidrug-resistant and -sensitive cells of the T-lymphoblastoid leukemia cell lines CCRF-VCR 1000 and CCRF-CEM are withdrawn from the cell culture and harvested by centrifugation. The cells are taken up in RPMI medium (pH=7.3) without fetal calf serum and incubated at 37° C. for 30 min with the rising concentrations of resistance modulators. […] The excitation wavelength is 488 nm.
# The number of the investigated compounds correspond to the numbers in the examples.
# T1 sequence (P08183 whole entry): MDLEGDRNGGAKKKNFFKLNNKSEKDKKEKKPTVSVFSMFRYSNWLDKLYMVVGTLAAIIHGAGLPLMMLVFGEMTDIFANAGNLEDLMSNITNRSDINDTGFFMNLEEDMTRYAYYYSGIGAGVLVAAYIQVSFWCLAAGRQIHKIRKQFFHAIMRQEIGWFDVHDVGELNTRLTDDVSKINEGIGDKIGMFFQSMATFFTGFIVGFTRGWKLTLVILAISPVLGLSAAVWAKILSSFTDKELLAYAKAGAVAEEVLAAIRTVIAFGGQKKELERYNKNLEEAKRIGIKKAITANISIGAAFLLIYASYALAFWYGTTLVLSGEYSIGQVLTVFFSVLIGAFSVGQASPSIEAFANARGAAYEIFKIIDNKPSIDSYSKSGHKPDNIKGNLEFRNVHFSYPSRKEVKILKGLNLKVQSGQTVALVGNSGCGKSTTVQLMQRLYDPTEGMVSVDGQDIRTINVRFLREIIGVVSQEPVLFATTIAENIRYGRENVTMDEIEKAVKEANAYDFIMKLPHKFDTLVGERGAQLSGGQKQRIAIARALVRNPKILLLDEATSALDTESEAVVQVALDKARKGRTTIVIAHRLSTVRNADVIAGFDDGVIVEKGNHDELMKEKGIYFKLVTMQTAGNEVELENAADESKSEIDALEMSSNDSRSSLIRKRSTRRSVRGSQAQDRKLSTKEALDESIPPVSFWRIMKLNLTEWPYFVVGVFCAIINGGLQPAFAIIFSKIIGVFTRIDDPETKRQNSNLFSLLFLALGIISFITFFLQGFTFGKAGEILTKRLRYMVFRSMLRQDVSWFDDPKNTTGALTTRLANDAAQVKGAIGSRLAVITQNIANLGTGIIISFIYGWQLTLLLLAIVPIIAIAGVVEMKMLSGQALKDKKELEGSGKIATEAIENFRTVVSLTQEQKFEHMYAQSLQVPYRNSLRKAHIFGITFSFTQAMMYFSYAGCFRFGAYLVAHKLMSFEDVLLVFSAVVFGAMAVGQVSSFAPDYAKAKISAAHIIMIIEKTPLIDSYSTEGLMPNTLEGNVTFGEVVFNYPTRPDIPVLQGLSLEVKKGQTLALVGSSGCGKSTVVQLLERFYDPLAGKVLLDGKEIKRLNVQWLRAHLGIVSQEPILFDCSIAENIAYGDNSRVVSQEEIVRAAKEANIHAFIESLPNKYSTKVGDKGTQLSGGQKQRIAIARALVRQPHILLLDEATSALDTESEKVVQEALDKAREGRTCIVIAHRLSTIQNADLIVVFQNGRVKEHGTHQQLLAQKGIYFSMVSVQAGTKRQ
row,SMILES,EC50 [nM]
1,"Cc1nc2nc(C)n(CCN3CCOCC3)c(=O)c2c(-c2cccc([N+](=O)[O-])c2)c1C(=O)CCCCCCCCCCN1CCC(c2ccccc2)(c2ccccc2)CC1 [Compound 1, 3,4-Dihydro-2,7-dimethyl-3-[2-(4-morpholinyl)ethyl]-5-3-nitrophenyl)-4-oxo-6-[1-oxo-11-(4,4-diphenyl-1-piperidinyl)undecyl]-pyrido[2,3-d]pyrimidine dihydrochloride]",25.1
2,"Cc1nc2nc(C)n(-c3ccccc3)c(=O)c2c(-c2cccc([N+](=O)[O-])c2)c1C(=O)CCCCCCCCCCN1CCC(c2ccccc2)(c2ccccc2)CC1 [Compound 2, 3,4-Dihydro-2,7-dimethyl-5-(3-nitrophenyl)-4-oxo-3-phenyl-6-[1-oxo-11-(4,4-diphenyl-1-piperidinyl)undecyl]pyrido[2,3-d]pyrimidine hydrochloride]",63.1
3,CCCn1cnc2nc(C)c(C(=O)CCCCCCCN3CCC(c4ccccc4)(c4ccccc4)CC3)c(-c3cccc([N+](=O)[O-])c3)c2c1=O [Compound 3],25.1
4,CCCCCn1cnc2nc(C)c(C(=O)CCCCCCCN3CCC(c4ccccc4)(c4ccccc4)CC3)c(-c3cccc([N+](=O)[O-])c3)c2c1=O [Compound 4],20
5,CCCCn1cnc2nc(C)c(C(=O)CCCCCCCCCCN3CCC(c4ccccc4)(c4ccccc4)CC3)c(-c3cccc([N+](=O)[O-])c3)c2c1=O [Compound 6],15.8
6,CCCn1cnc2nc(C)c(C(=O)CCCCCCCCCCN3CCC(c4ccccc4)(c4ccccc4)CC3)c(-c3cccc([N+](=O)[O-])c3)c2c1=O [Compound 7],50.1
7,CCCCCn1cnc2nc(C)c(C(=O)CCCCCCCCCCN3CCC(c4ccccc4)(c4ccccc4)CC3)c(-c3cccc([N+](=O)[O-])c3)c2c1=O [Compound 8],31.6
8,Cc1nc2ncn(-c3ccccc3)c(=O)c2c(-c2cccc([N+](=O)[O-])c2)c1C(=O)CCCCCCCCCCN1CCC(c2ccccc2)(c2ccccc2)CC1 [Compound 9],63.1
9,Cc1nc2ncn(Cc3ccccc3)c(=O)c2c(-c2cccc([N+](=O)[O-])c2)c1C(=O)CCCCCCCCCCN1CCC(c2ccccc2)(c2ccccc2)CC1 [Compound 10],25.1
10,COc1ccc(-n2cnc3nc(C)c(C(=O)CCCCCCCCCCN4CCC(c5ccccc5)(c5ccccc5)CC4)c(-c4cccc([N+](=O)[O-])c4)c3c2=O)cc1 [Compound 11],39.8
11,Cc1nc2ncn(CCN3CCOCC3)c(=O)c2c(-c2cccc([N+](=O)[O-])c2)c1C(=O)CCCCCCCCCCN1CCC(c2ccccc2)(c2ccccc2)CC1 [Compound 12],25.1
12,CCCn1c(C)nc2nc(C)c(C(=O)CCCCCCCN3CCC(c4ccccc4)(c4ccccc4)CC3)c(-c3cccc([N+](=O)[O-])c3)c2c1=O [Compound 13],50.1
13,CCCCCn1c(C)nc2nc(C)c(C(=O)CCCCCCCN3CCC(c4ccccc4)(c4ccccc4)CC3)c(-c3cccc([N+](=O)[O-])c3)c2c1=O [Compound 14],79.4
14,Cc1nc2nc(C)n(CCCN3CCOCC3)c(=O)c2c(-c2cccc([N+](=O)[O-])c2)c1C(=O)CCCCCCCCCCN1CCC(c2ccccc2)(c2ccccc2)CC1 [Compound 15],31.6
15,Cc1nc2nc(C)n(CCN3CCCCC3)c(=O)c2c(-c2cccc([N+](=O)[O-])c2)c1C(=O)CCCCCCCCCCN1CCC(c2ccccc2)(c2ccccc2)CC1 [Compound 16],79.4
16,Cc1nc2ncn(CCCN3CCOCC3)c(=O)c2c(-c2cccc([N+](=O)[O-])c2)c1C(=O)CCCCCCCCCCN1CCC(c2ccccc2)(c2ccccc2)CC1 [Compound 17],25.1
17,Cc1nc2nc(C)n(CCN3CCCCC3)c(=O)c2c(-c2cccc([N+](=O)[O-])c2)c1C(=O)CCCCCCCN1CCC(c2ccccc2)(c2ccccc2)CC1 [Compound 18],50.1
18,CCCCn1c(C)nc2nc(C)c(C(=O)CCCCN3CCC(c4ccccc4)(c4ccccc4)CC3)c(-c3cccc([N+](=O)[O-])c3)c2c1=O [Compound 19],100
19,CCCCn1c(C)nc2nc(C)c(C(=O)CCCCCCCN3CCC(c4ccccc4)(c4ccccc4)CC3)c(-c3cccc([N+](=O)[O-])c3)c2c1=O [Compound 20],31.6
20,CCCCn1cnc2nc(C)c(C(=O)CCCCCCCN3CCC(c4ccccc4)(c4ccccc4)CC3)c(-c3cccc([N+](=O)[O-])c3)c2c1=O [Compound 21],50.1
21,Cc1nc2ncn(Cc3ccccc3)c(=O)c2c(-c2cccc([N+](=O)[O-])c2)c1C(=O)CCCCCCCN1CCC(c2ccccc2)(c2ccccc2)CC1 [Compound 22],39.8
22,Cc1nc2nc(C)n(Cc3ccccc3)c(=O)c2c(-c2cccc([N+](=O)[O-])c2)c1C(=O)CCCCCCCN1CCC(c2ccccc2)(c2ccccc2)CC1 [Compound 23],50.1

# Same assay, conditions: CCRF-VCR 1000 and CCRF-CEM cells; Rhodamine 123 0.8 mg/l; 30 min preincubation, 1 h at 37° C.; RPMI without fetal calf serum, pH 7.3
row,SMILES,pEC50
1,Cc1nc2nc(C)n(CCN3CCOCC3)c(=O)c2c(-c2cccc([N+](=O)[O-])c2)c1C(=O)CCCCCCCN1CCC(c2ccccc2)(c2ccccc2)CC1 [Compound 5],6.8

# Source: patent US5925642A, “Pyridopyrimidines” (Byk Gulden Lomberg Chemische Fabrik GmbH, priority 1995, dated 1999)
